# Test results: patent publication US20230020161A1, “Tricyclic Modulators of PP2A” (Rappta Therapeutics Oy, priority 2020, published 2023)
# Legend:
# [1] = test system: LNCaP cells; experiment: Cell viability assay (MTS) in LNCaP cells; format: cell-based; conditions: doses 1 μM to 80 μM
# Procedure: Cell line LNCaP was used for this assay. LNCaP cells were plated in 96-well plates at a density of 5000 cells per well. After 24 hours of plating, cells were treated with increasing doses of compound ranging from 1 μM to 80 μM. Relative cell numbers were analyzed after 48 hours using a 3-(4,5-dimethylthiazol-2-yl)-5-(3-carboxymethoxyphenyl)-2-(4-sulfophenyl)-2H-tetrazolium (MTS) assay (Promega) according to the manufacturer's directions.
# LNCaP cells were treated with increasing doses of Target compound and cell viability was measured at 48 hours by MTS analysis.
# The cell viability data was analyzed with GraphPad Prism software. The values were log transformed and analyzed with nonlinear regression (curve-fit) using log(inhibitor) vs. response variable slope (four parameters) and constraining the bottom to equal zero.
# [2] = target: T1, Human Pregnane X Receptor (PXR, NR1I2) (Homo sapiens, UniProt O75469); experiment: PXR activation assay (Puracyp DPX2-96-001); format: cell-based
# T1 construct: host or cells: DPX2 cells of the kit
# T1 sequence (O75469 1-434): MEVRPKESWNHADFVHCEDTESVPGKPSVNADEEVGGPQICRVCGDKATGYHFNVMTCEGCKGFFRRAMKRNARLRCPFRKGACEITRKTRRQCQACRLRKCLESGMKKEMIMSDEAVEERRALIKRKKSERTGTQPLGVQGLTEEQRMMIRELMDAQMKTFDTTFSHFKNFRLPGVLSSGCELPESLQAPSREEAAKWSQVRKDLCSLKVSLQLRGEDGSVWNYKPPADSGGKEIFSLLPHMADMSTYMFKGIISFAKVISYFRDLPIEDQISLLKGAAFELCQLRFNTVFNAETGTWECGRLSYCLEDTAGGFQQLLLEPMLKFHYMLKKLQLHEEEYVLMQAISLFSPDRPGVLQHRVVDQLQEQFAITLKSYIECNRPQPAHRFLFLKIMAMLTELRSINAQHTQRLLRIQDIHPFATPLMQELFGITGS
# Description: PXR is a nuclear hormone receptor involved in the transcriptional regulation of a number of metabolic enzymes (e.g. CYP3A4) and transporters (e.g. PGP). Its activation by xenobiotic substances leads to upregulation of those metabolic enzymes and transporters and consequent removal of those substances from systemic circulation. It is not uncommon to find that drugs activate the PXR receptor with problematic consequences. […] In addition, if the drug itself is metabolized by, for example, CYP3A4, then there can be reduced exposure of the drug on repeated administration (auto-induction). It is thus considered beneficial to eliminate or at least minimize PXR activation if drug candidates. For drug series where PXR activation is significant, PXR activation is generally treated as a key criterion for optimization and advancement (V. Chu et al., Drug Metab. Dispos. 37, 1339 (2009).
# PXR activation assay was performed according to manufacturer's instructions (Puracyp, Inc, Catalog #DPX2-96-001).
# [3] = Concentration observed is at 10 μM
SMILES,"GI50 ([1]; Homo sapiens, LNCaP, 48 h) [µM]",Percent positive control response ([2]; @30 μM),"Maximum fold activation observed (Average) [2, 3]","Percent positive control response [2, 3] [%]",GI50 ([1]; 48 hours) [µM]
N=[S@](=O)(N[C@@H]1COC[C@H](N2c3ccccc3Oc3ccccc32)[C@H]1O)c1ccc(OC(F)(F)F)cc1 (relative stereo) [Target T14-1],25.6,35.4 @30 μM %,6.21,,
N=[S@@](=O)(N[C@@H]1COC[C@H](N2c3ccccc3Oc3ccccc32)[C@H]1O)c1ccc(OC(F)(F)F)cc1 (relative stereo) [Target T14-2],25.6,,4.12,21.2,
"O=S(=O)(N[C@@H]1COC[C@H](n2c3ccc(Cl)cc3c3cc(Cl)ccc32)[C@H]1O)c1ccc(OC(F)(F)F)cc1 [Target T16, reference compound]",8.2,,3.93,16.7,
"O=S(=O)(N[C@@H]1COC[C@H](N2c3ccccc3Oc3ccccc32)[C@H]1O)c1ccc(OC(F)(F)F)cc1 [T10 (DT-061), reference compound]",10.7,,17.3,89.8,
N=[S@@](=O)(N[C@@H]1CCC[C@H](N2c3ccccc3Oc3ccccc32)[C@H]1O)c1ccc(OC(F)(F)F)cc1 (relative stereo) [Target T11-2],16.8,,4.82,26,
CN=[S@](=O)(N[C@@H]1COC[C@H](N2c3ccccc3Oc3ccccc32)[C@H]1O)c1ccc(OC(F)(F)F)cc1 (relative stereo) [Target T15-1],16.6,,3.89,19.6,
"CCCN=S(=O)(N[C@@H]1COC[C@H](N2c3ccccc3Oc3ccccc32)[C@H]1O)c1ccc(OC(F)(F)F)cc1 (stereo partly drawn) [Target T15C, N-((3R,4R,5S)-4-hydroxy-5-(10H-phenoxazin-10-yl)tetrahydro-2H-pyran-3-yl)-N′-propyl-4-(trifluoromethoxy) benzenesulfonimidoamide]",55.4,,,,
"N=[S@](=O)(NC[C@H](O)CN1c2ccccc2CCc2ccccc21)c1ccc(OC(F)(F)F)cc1 (single isomer, unassigned) [Target T5d2]",20.2,,,,
CN=[S@](=O)(N[C@@H]1COC[C@H](n2c3ccc(Cl)cc3c3cc(Cl)ccc32)[C@H]1O)c1ccc(OC(F)(F)F)cc1 (relative stereo) [Target T18-1],8.53,,1.79,5.37,
N=[S@](=O)(N[C@@H]1COC[C@H](n2c3ccc(Cl)cc3c3cc(Cl)ccc32)[C@H]1O)c1ccc(OC(F)(F)F)cc1 (relative stereo) [Target T17-1],10.2,,2.43,9.75,
CN=[S@@](=O)(N[C@@H]1COC[C@H](N2c3ccccc3Oc3ccccc32)[C@H]1O)c1ccc(OC(F)(F)F)cc1 (relative stereo) [Target T15-2],23.6,,7.15,41.8,
"O=S(=NCC1CC1)(N[C@@H]1COC[C@H](N2c3ccccc3Oc3ccccc32)[C@H]1O)c1ccc(OC(F)(F)F)cc1 (stereo partly drawn) [Target T15A, N-(cyclopropylmethyl)-N′-((3R,4R,5S)-4-hydroxy-5-(10H-phenoxazin-10-yl)tetrahydro-2H-pyran-3-yl)-4-(trifluoromethoxy) benzenesulfonimidoamide]",9.54,,,,
"O=S(=O)(N[C@@H]1COC[C@H](N2c3ccccc3Oc3ccccc32)[C@H]1O)c1ccc(OC(F)(F)F)cc1 [Target T13, reference compound]",,,11,57,14.2

# Now from value to molecule:
"GI50 ([1]; Homo sapiens, LNCaP, 48 h) [µM]",Percent positive control response ([2]; @30 μM),"Maximum fold activation observed (Average) [2, 3]","Percent positive control response [2, 3] [%]",GI50 ([1]; 48 hours) [µM],SMILES
25.8,,,,,"N=[S@@](=O)(NC[C@H](O)CN1c2ccccc2CCc2ccccc21)c1ccc(OC(F)(F)F)cc1 (single isomer, unassigned) [Target T5d1]"
9.64,,2.45,9.88,,N=[S@@](=O)(N[C@@H]1COC[C@H](n2c3ccc(Cl)cc3c3cc(Cl)ccc32)[C@H]1O)c1ccc(OC(F)(F)F)cc1 (relative stereo) [Target T17-2]
22.7,,,,,"CN=[S@@](=O)(NC[C@H](O)CN1c2ccccc2CCc2ccccc21)c1ccc(OC(F)(F)F)cc1 (single isomer, unassigned) [Target T6d1]"
24.5,,,,,"CN=[S@](=O)(NC[C@H](O)CN1c2ccccc2CCc2ccccc21)c1ccc(OC(F)(F)F)cc1 (single isomer, unassigned) [Target T6d2]"
12.2,,2.36,9.23,,CN=[S@@](=O)(N[C@@H]1COC[C@H](n2c3ccc(Cl)cc3c3cc(Cl)ccc32)[C@H]1O)c1ccc(OC(F)(F)F)cc1 (relative stereo) [Target T18-2]
16.7,,4.57,24.2,,N=[S@](=O)(N[C@@H]1CCC[C@H](N2c3ccccc3Oc3ccccc32)[C@H]1O)c1ccc(OC(F)(F)F)cc1 (relative stereo) [Target T11-1]
